Experimental data reported in patent publication US20260176279A1, “DUAL RAF AND TUBULIN INHIBITORS AND METHODS OF USE THEREOF” (Deciphera Pharmaceuticals, LLC, priority 2023, published 2026).
Read-outs that look alike come from different tables or passages of the source.

Columns and labels:
[1] = molecular target: T1, B-Raf kinase (Homo sapiens, UniProt P15056); test: Biochemical Assay for B-Raf (coupled pyruvate kinase/lactate dehydrogenase assay)
T1 construct: GST (N); purchased Sigma

[2] = molecular target: T2, C-Raf kinase (Homo sapiens, UniProt P04049, Y340D/Y341D); test: Biochemical Assay for C-Raf (coupled pyruvate kinase/lactate dehydrogenase assay)
T2 construct: C-Raf residues 306-end; Y340D, Y341D with N-; GST (N); purchased Eurofins
T2 sequence (P04049 307-648 Y340D/Y341D): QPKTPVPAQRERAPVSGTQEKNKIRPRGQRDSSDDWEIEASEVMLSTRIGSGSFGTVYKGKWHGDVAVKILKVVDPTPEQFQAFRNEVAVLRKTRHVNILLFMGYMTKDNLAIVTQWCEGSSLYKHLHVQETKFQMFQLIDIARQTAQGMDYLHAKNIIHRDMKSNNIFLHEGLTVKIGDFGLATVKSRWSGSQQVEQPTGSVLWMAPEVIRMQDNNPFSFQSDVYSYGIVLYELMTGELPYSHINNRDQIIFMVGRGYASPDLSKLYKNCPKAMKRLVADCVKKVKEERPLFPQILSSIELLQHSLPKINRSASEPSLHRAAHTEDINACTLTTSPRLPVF

[3] = tested on: MiaPaca-2 cells; test: MiaPaca-2 Cell Proliferation Assay; assay type: cell-based; settings: Homo sapiens, MIA PaCa-2
Method: MiaPaca-2 cells (catalog #CRL-1420) are obtained from the American Type Culture Collect (ATTC, Manassas, VA). Briefly, cells were grown in DMEM supplemented with 10% characterized fetal bovine serum (Invitrogen, Carlsbad, CA), 2.5% New Zealand sourced horse serum and 1% Penicillin/Streptomycin/L-Glutamine at 37° C., 5% CO2, and 95% humidity. Cells are expanded until reaching 70-95% confluency at which point they are sub-cultured or harvested for assay use. For assays completed in 96-well plates, a serial dilution of test compound is dispensed into a 96-well black clear bottom plate in triplicate. Three thousand cells are added per well in 200 μL complete growth medium in the 96-well plate. Plates are incubated for 67 to 72 h at 37° C., 5% CO2, and 95% humidity. At the end of the incubation, 40 μL of a […] solution of resazurin (Sigma, St. Louis, MO) in PBS is added to each well of the plate and plates are incubated for an additional 5 to 6 hours at 37° C., 5% CO2, and 95% humidity. For 384-well assays, a threefold, 8-point serial dilution of compound was spotted column wise into a 384 well black, clear bottom, tissue culture treated plate using the Beckman Coulter Echo 650. Likewise, a threefold, 8-point serial dilution of cobimetinib was spotted row wise into the 384 well black, clear bottom plate containing compound. DMSO concentration was constant across all wells at 0.4%. Seven hundred fifty cells are added per well in 50 μL complete growth medium in each 384-well plate. Plates are incubated for 67 to 72 h at 37° C., 5% CO2, and 95% humidity. At the end of the incubation, 10 μL of a 440 μM solution of resazurin (Sigma, St. Louis, MO) in PBS is added to each well of the plate and plates are incubated for an additional 4 to 6 h at 37° C., 5% CO2, and 95% humidity. Plates are read on a Synergy2 or equivalent reader (Biotek, Winooski VT) using an excitation of 540 nm and an emission of 600 nm. Data is analyzed using Prism software (Graphpad, San Diego, CA) to calculate IC50 values.

[4] = tested on: HCT-116 cells; test: HCT-116 Cell Proliferation Assay; assay type: cell-based; settings: Homo sapiens
Method: HCT-116 cells (catalog #CCL-247) are obtained from the American Type Culture Collect (ATCC, Manassas, VA). Briefly, cells are grown in McCoy's 5A supplemented with 10% characterized fetal bovine serum (Invitrogen, Carlsbad, CA) and 1% Penicillin/Streptomycin/L-Glutamine at 37° C., 5% CO2, and 95% humidity. Cells are expanded until reaching 70-95% confluency at which point they are sub-cultured or harvested for assay use. A serial dilution of test compound is dispensed into a 384-well black clear bottom plate in triplicate. 375 cells are added per well in 50 μL complete growth medium in the 384-well plate. Plates are incubated for 67 to 72 h at 37° C., 5% CO2, and 95% humidity. At the end of the incubation, 40 μL of a […] solution of resazurin (Sigma, St. Louis, MO) in PBS is added to each well of the plate and plates are incubated for an additional 4 to 5 hours at 37° C., 5% CO2, and 95% humidity. Plates are read on a Synergy2 or equivalent reader (Biotek, Winooski, VT) using an excitation of 540 nm and an emission of 600 nm. Data is analyzed using Prism software (Graphpad, San Diego, CA) to calculate IC50 values.

[5] = tested on: HPAF-II cells; test: HPAF-II Cell Proliferation Assay; assay type: cell-based; settings: Homo sapiens
Method: HPAF-II cells (catalog #CRL-1997) are obtained from the American Type Culture Collect (ATCC, Manassas, VA). Briefly, cells are grown in Minimum Essential Media supplemented with 10% characterized fetal bovine serum (Invitrogen, Carlsbad, CA) and 1% Penicillin/Streptomycin/L-Glutamine at 37° C., 5% CO2, and 95% humidity. Cells are expanded until reaching 70-95% confluency at which point they are sub-cultured or harvested for assay use. A serial dilution of test compound is dispensed into a 384-well black clear bottom plate in triplicate. 750 cells are added per well in 50 μL complete growth medium in the 384-well plate. Plates are incubated for 115 to 120 h at 37° C., 5% CO2, and 95% humidity. At the end of the incubation, 40 μL of a […] solution of resazurin (Sigma, St. Louis, MO) in PBS is added to each well of the plate and plates are incubated for an additional 18 to 24 h at 37° C., 5% CO2, and 95% humidity. Plates are read on a Synergy2 or equivalent reader (Biotek, Winooski, VT) using an excitation of 540 nm and an emission of 600 nm. Data is analyzed using Prism software (Graphpad, San Diego, CA) to calculate IC50 values.

[6] = tested on: Pa16c cells; test: Pa16c Cell Proliferation Assay; assay type: cell-based; settings: Table 2, inhibition of cell proliferation
Method: Pa16c cells are obtained from Dr. Channing Der, University of North Carolina at Chapel Hill. Briefly, cells are grown in Dulbecco's Modified Eagle Medium supplemented with 10% characterized fetal bovine serum (Invitrogen, Carlsbad, CA) and 1% Penicillin/Streptomycin/L-Glutamine at 37° C., 5% CO2, and 95% humidity. Cells are expanded until reaching 70-95% confluency at which point they are sub-cultured or harvested for assay use. A serial dilution of test compound is dispensed into a 384-well black clear bottom plate in triplicate. 750 cells are added per well in 50 μL complete growth medium in the 384-well plate. Plates are incubated for 67 to 72 hours at 37° C., 5% CO2, and 95% humidity. At the end of the incubation, 40 μL of a […] solution of resazurin (Sigma, St. Louis, MO) in PBS is added to each well of the plate and plates are incubated for an additional 18 to 24 hours at 37° C., 5% CO2, and 95% humidity. Plates are read on a Synergy2 or equivalent reader (Biotek, Winooski, VT) using an excitation of 540 nm and an emission of 600 nm. Data is analyzed using Prism software (Graphpad, San Diego, CA) to calculate IC50 values.

[7] = tested on: tubulin; test: Cellular Tubulin Polymerization Assay (HCT-116 cells); assay type: cell-based; settings: Table 3, HCT-116 cells; read-out: Tubulin Cellular IC50
[8] = Table 1, inhibition of biochemical activity, read-out: BRAF
[9] = Table 1, inhibition of biochemical activity, read-out: CRAF
[10] = Table 2, inhibition of cell proliferation, read-out: MiaPaca-2
[11] = Table 3, read-out: MiaPaca-2 IC50
[12] = HCT-116, Table 3, read-out: HCT-116 IC50
[13] = Table 2, inhibition of cell proliferation, read-out: HCT-116
[14] = HPAF-II, Table 3, read-out: HPAF-II IC50
[15] = Table 2, inhibition of cell proliferation, read-out: HPAF-II

T1 sequence (P15056 416-766): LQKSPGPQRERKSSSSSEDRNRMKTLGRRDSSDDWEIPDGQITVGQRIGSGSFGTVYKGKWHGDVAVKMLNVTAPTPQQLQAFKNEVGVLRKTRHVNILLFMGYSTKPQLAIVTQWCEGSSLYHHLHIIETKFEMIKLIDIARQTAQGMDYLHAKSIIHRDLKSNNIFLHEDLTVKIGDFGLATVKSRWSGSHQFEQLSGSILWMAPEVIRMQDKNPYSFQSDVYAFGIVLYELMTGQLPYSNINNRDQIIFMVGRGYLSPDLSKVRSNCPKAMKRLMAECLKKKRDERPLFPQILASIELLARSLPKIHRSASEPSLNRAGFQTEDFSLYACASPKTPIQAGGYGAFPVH

IC50 [1, 8]	IC50 ([1]; Table 3, read-out: BRAF IC50)	IC50 [2, 9]	IC50 ([2]; Table 3, read-out: CRAF IC50)	IC50 [3, 10]	IC50 [3, 11]	IC50 [4, 12]	IC50 [4, 13]	IC50 [7]	Compound	IC50 [5, 14]	IC50 [5, 15]	IC50 [6]
100 to 500 nM	100 to 500 nM	< 100 nM	< 100 nM	< 100 nM	< 100 nM	< 100 nM	< 100 nM	< 100 nM	Cc1ccc(NC(=O)Nc2ccc(C(F)(F)F)nc2)cc1-c1cc(OC[C@H](C)O)nc(N2CCOCC2)c1 [Example 39]	< 100 nM	< 100 nM	100 to 500 nM
< 100 nM	100 to 500 nM	< 100 nM	< 100 nM	< 100 nM	< 100 nM	< 100 nM	< 100 nM	< 100 nM	Cc1ccc(NC(=O)Nc2ccc(C(F)(F)F)nc2)cc1-c1cc(OC[C@@H](C)O)nc(N2CCOCC2)c1 [Example 40]	< 100 nM	< 100 nM	100 to 500 nM

Second part, the compound before the results:

Compound	IC50 [1, 8]	IC50 ([1]; Table 3, read-out: BRAF IC50)	IC50 [2, 9]	IC50 ([2]; Table 3, read-out: CRAF IC50)	IC50 [3, 10]	IC50 [3, 11]	IC50 [4, 12]	IC50 [4, 13]	IC50 [7]	IC50 [5, 14]	IC50 [5, 15]	IC50 [6]
CC(=O)Nc1cc(-c2cc(-c3cc(NC(=O)Nc4ccc(C(F)(F)F)nc4)ccc3C)ccn2)ccn1 [Example 4]	< 100 nM	< 100 nM	< 100 nM	< 100 nM	< 100 nM	< 100 nM	< 100 nM	< 100 nM	< 100 nM	100 to 500 nM	100 to 500 nM	< 100 nM
CC(=O)Nc1cc(-c2cc(-c3cc(NC(=O)Nc4ccc(C(F)(F)F)nc4)ccc3C)cn(C)c2=O)ccn1 [Example 9]	< 100 nM	< 100 nM	< 100 nM	< 100 nM	< 100 nM	< 100 nM	< 100 nM	< 100 nM	< 100 nM	500 to 1000 nM	500 to 1000 nM	100 to 500 nM
CNc1cc(-c2cc(-c3cc(NC(=O)Nc4ccc(C(F)(F)F)nc4)ccc3C)cc(OCCO)n2)ccn1 [Example 17]	100 to 500 nM	100 to 500 nM	< 100 nM	100 to 500 nM	< 100 nM	< 100 nM	< 100 nM	< 100 nM		500 to 1000 nM	500 to 1000 nM	< 100 nM
Cc1ccc(NC(=O)Nc2cc(C(F)(F)F)cnn2)cc1-c1ccnc(-c2ccnc(NC(=O)C3CC3)c2)c1 [Example 22, N-(4-(2-methyl-5-(3-(5-(trifluoromethyl)pyridazin-3-yl)ureido)phenyl)-[2,4′-bipyridin]-2′-yl)cyclopropanecarboxamide]	< 100 nM		< 100 nM		500 to 1000 nM			500 to 1000 nM			1000 to 10000 nM	1000 to 10000 nM
Cc1ccc(NC(=O)Nc2ccc(C(F)(F)F)nc2)cc1-c1cc(N2CCOCC2)nc(N2CCC(O)CC2)n1 [Example 34]	100 to 500 nM	100 to 500 nM	< 100 nM	100 to 500 nM	< 100 nM	< 100 nM	< 100 nM	< 100 nM	< 100 nM	100 to 500 nM	100 to 500 nM	500 to 1000 nM
